# US12668572B2, “Degradable lipid for active molecule delivery and lipid nanoparticle thereof” (BEIJING CARRIUS BIO LTD., priority 2023, dated 2026)
# Test system: expression of luciferase (firefly luciferase mRNA) in liver
# Assay: In vivo luciferase imaging (IVIS) of liver after tail vein administration of Fluc mRNA/LNPs
# Set-up: species or system Balb/c mice
# Conditions: 6 hours; for Average intensity (comparison with SM102 and MC3): N/P 7.5, tail vein, liver
# Description: In order to achieve mRNA delivery at animal level, the inventors prepared mRNA/lipid nanoparticles using the method as follows: formulating each of the ionizable lipid compounds (YX8, YX17, YX31, YX27, YX28, YX35, YX29 or YX33) prepared in Example 1, cholesterol, DOPE and DMG-PEG2000 into a 10 mg/mL ethanol solution. Taking YX27 as an example, when preparing an mRNA/LNP complex in a single time, YX27 solution (1.6 mg) was measured and mixed with cholesterol, DOPE and DMG-PEG2000 according to a molar ratio of 50:38.5:10:1.5, and the total volume of the solution was allowed to reach 450 μl by supplementing ethanol. 150 μg of firefly luciferase mRNAs were taken and added to a sodium acetate buffer (50 mM, pH=5.2), and the total volume of the solution was 1350 μl. The ionizable lipid compound solution and the mRNA solution were mixed by introducing into a microfluidic machine (speed: 0.2 mL/min of ethanol solution, and 0.6 mL/min of sodium acetate buffer solution) to prepare lipid nanoparticles encapsulating mRNAs, which were dialyzed against PBS buffer for 2 hours, and the obtained samples were directly used for animal experiments. The ratio of the ionizable lipid compound YX27 to mRNAs was calculated according to the molar ratio (N/P) of the nitrogen atoms in YX27 to the phosphorus atoms in the phosphate skeleton of the mRNAs. In this example, N/P was 7.5.
# In order to verify the delivery effect of the above Fluc mRNA/LNP preparation, YX27 LNPs encapsulating 150 μg/kg Fluc mRNAs were injected into 6-8 week-old female Balb/c mice by administration via tail vein, or YX27 LNPs encapsulating 250 μg/kg Fluc mRNAs were injected into the hind legs of mice by intramuscular administration; after 6 hours, 200 μl of D-Lucifin (with a mass fraction of 30%) was injected by intraperitoneal administration, and the expression and intensity of luciferase in the whole body, liver and muscle administration sites were detected by PerkinElmer IVIS Lumina III small animal in vivo optical imaging system. In order to study the effect of the hydrophobic chain length of lipid compounds on mRNA delivery efficiency, LNP samples encapsulating Fluc mRNAs were prepared using lipid compounds YX9, YX8, YX17 and YX31 respectively according to YX27 experimental operation, and the efficiency of luciferase expression in mice was studied.
# In order to study the effect of the mixing ratio (N/P ratio) of ionizable lipids and mRNAs as the LNP components on the mRNA delivery efficiency, mixed samples of YX27 and luciferase mRNAs at N/P ratios of 7.5 and 9 were prepared according to the operation steps of Example 2, the mRNA delivery and the expression and intensity of luciferase in the whole body, liver and other sites were studied by administration via tail vein (the delivery results are shown in FIG. 3 and the table below).
# LNPs containing SM102 or MC3 as the cationic lipid and luciferase mRNAs at an N/P ratio of 7.5 were prepared according to the operation steps of Example 2, in which the dose of Fluc mRNAs was 25 μg/kg, 50 μg/kg or 150 μg/kg respectively; and then the mRNA delivery by the prepared LNPs and the expression and intensity of luciferase in the whole body, liver and other sites were studied by administration via tail vein. The delivery results are shown in FIG. 4A, FIG. 4B and the table below.
# In order to verify the expression efficiency of luciferase after administration of Fluc mRNA/LNPs as a function of time, YX27 solution encapsulating 150 μg/kg of Fluc mRNAs was injected into 6-8 week-old female Balb/c mice by administration via tail vein; 2 h, 4 h, 6 h, 18 h and 24 h after administration respectively, 200 μl of D-Lucifin (with a mass fraction of 30%) was injected by intraperitoneal administration, and the expression and intensity of luciferase in the whole body and liver site were detected by PerkinElmer IVIS Lumina III small animal in vivo optical imaging system. […]
Compound,"Average intensity 50 μg/kg (lipids with different structures) (Fluc mRNA 50 μg/kg, N/P 7.5, liver tissue) [p/s]","Average intensity 150 μg/kg (lipids with different structures) (Fluc mRNA 150 μg/kg, N/P 7.5, liver tissue) [p/s]",Average intensity (comparison with SM102 and MC3) (Fluc mRNA dose 25 μg/kg) [p/s],Average intensity (comparison with SM102 and MC3) (Fluc mRNA dose 50 μg/kg) [p/s],Average intensity (comparison with SM102 and MC3) (Fluc mRNA dose 150 μg/kg) [p/s]
CCCCCCCCCCCOC(=O)CCCCCN(CCO)CCCCCCCC(=O)OC(CCCCCCCC)CCCCCCCC [SM102],2.02E+09,5.65E+09,1.20E+09,2.02E+09,5.65E+09
"CCCCC/C=C\C/C=C\CCCCCCCCC(CCCCCCCC/C=C\C/C=C\CCCCC)OC(=O)CCCN(C)C [MC3, D-Lin-MC3-DMA]",–,–,4.28E+08,8.40E+08,7.16E+09
